Measured values published in patent publication US7776324B2, “Cancer vaccine” (Malaysian Palm Oil Board (MPOB), priority 2006, dated 2010).

Tested on: IFN-γ
Test: Serum IFN-γ levels following tocotrienol supplementation in mouse models
Assay type: in vivo

tocotrienol
serum levels of interferon-gamma (IFN-γ): significantly increased
